The test has as its target STING (Homo sapiens, UniProt Q86WV6, G230A/H232R/R293Q/R71H). In words: STING reporter assay in THP1-Dual KO-IFNAR2 cells (2′3′cGAMP stimulation, luciferase reporter). The following applies: 15 μM 2′3′cGAMP stimulation, 24 h, read-out: Pharmaron, THP1_IFNAR2 STING 24 h Luci Normalized: GeoMean EC50. The class given is cell-based. An outline of the steps:
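THP1-Dual KO-IFNAR2 cells (2×10E6 cells/mL) with compounds at 0.0017-100 μM final, stimulated with 15 μM final 2′3′cGAMP delivered by Lipofectamine 2000; 24 h at 37 °C. Luciferase in supernatant read with QUANTI-Luc Plus; EC50 derived from luminescence.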

Consider 33 compounds from US12503436B2, “Compounds and compositions for treating conditions associated with STING activity” (NOVARTIS PHARMA AG, priority 2021, dated 2025).

Sequence of STING (Q86WV6 whole entry R71H/G230A/H232R/R293Q): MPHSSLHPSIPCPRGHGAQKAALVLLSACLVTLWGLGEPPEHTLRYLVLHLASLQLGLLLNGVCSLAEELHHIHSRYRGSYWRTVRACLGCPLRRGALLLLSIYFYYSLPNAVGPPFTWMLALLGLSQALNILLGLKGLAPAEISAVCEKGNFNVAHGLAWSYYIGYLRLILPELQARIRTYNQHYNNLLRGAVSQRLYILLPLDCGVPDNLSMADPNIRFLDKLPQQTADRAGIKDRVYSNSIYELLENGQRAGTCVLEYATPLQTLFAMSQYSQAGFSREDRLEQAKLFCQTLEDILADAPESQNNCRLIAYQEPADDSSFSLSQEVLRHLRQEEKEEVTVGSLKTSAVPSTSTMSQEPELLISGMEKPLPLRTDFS

`COCC1(C(=O)Nc2c[nH]c3ccc(O[C@H]4C[C@@H](c5ccc(C(F)(F)F)cc5)C4)cc23)CC1` [Compound 333, 1-(methoxymethyl)-N-(5-(cis-3-(4-(trifluoromethyl)phenyl)cyclobutoxy)-1H-indol-3-yl)cyclopropane-1-carboxamide]: the EC50 was in the range of 1 to 5 µM.
Regarding `CC(=O)Nc1c[nH]c2ccc(CCNc3ccc(C(F)(F)F)cn3)cc12` [Compound 199, N-(5-(2-((5-(trifluoromethyl)pyridin-2-yl)amino)ethyl)-1H-indol-3-yl)acetamide], the EC50 was in the range of 1 to 5 µM.
Consider `O=C(Nc1c[nH]c2ccc(O[C@H]3C[C@@H](c4ccc(C(F)(F)F)cc4)C3)cc12)C1CC(CO)C1` (stereo partly drawn) [Compound 158, 3-(hydroxymethyl)-N-(5-(cis-3-(4-(trifluoromethyl)phenyl)cyclobutoxy)-1H-indol-3-yl)cyclobutane-1-carboxamide], for which the EC50 is 0.04 to 0.2 µM.
Then `O=C(Nc1c[nH]c2ccc(OCc3ccc(C(F)(F)F)cc3)cc12)C1(F)CC1` [Compound 331, 1-fluoro-N-(5-((4-(trifluoromethyl)benzyl)oxy)-1H-indol-3-yl)cyclopropane-1-carboxamide], with 1 to 5 µM; and `CC(=O)Nc1c[nH]c2ccc(CCOc3cnc(C(F)(F)F)nc3)cc12` [Compound 184, N-(5-(2-((2-(trifluoromethyl)pyrimidin-5-yl)oxy)ethyl)-1H-indol-3-yl)acetamide], with 5 to 100 µM.
Turning to `N#CC1(C(=O)Nc2c[nH]c3ccc(OCC[C@@H]4C[C@@H]5CN(CC(F)(F)F)C[C@@H]5C4)cc23)CC1` [Compound 370, 1-cyano-N-(5-(2-((3aR,5r,6aS)-2-(2,2,2-trifluoroethyl)octahydrocyclopenta[c]pyrrol-5-yl)ethoxy)-1H-indol-3-yl)cyclopropane-1-carboxamide], the concentration for a half-maximal effect (EC50) is 0.2 to 1 µM.
Then `CC(=O)Nc1c[nH]c2ccc(OCC3CCN(CC(F)(F)F)CC3)cc12` [Compound 119, N-(5-((1-(2,2,2-trifluoroethy|)piperidin-4-yl)methoxy)-1H-indol-3-yl)acetamide], with 5 to 100 µM; and `CCC(=O)Nc1c[nH]c2ccc(CCOc3ccc(C)cc3)cc12` [Compound 168, N-(5-(2-(p-tolyloxy)ethyl)-1H-indol-3-yl)propionamide], with 0.2 to 1 µM.
Then `O=C(Nc1c[nH]c2ccc(O[C@H]3C[C@@H](c4ccc(C(F)(F)F)cc4)C3)cc12)C1(F)CC1` [Compound 302, 1-fluoro-N-(5-(cis-3-(4-(trifluoromethyl)phenyl)cyclobutoxy)-1H-indol-3-yl)cyclopropane-1-carboxamide], with 0.2 to 1 µM; and `CC(=O)Nc1c[nH]c2ccc(CCOc3ccc(OCC(F)(F)F)cc3)cc12` [Compound 452, N-(5-{2-[4-(2,2,2-trifluoroethoxy)phenoxy]ethyl}-1H-indol-3-yl)acetamide], with 0.04 to 0.2 µM.
Then `CC(=O)Nc1c[nH]c2ccc(CCOc3ccc(C4CCN(CC(F)(F)F)CC4)cc3)cc12` [Compound 170, N-(5-(2-(4-(1-(2,2,2-trifluoroethyl)piperidin-4-yl)phenoxy)ethyl)-1H-indol-3-yl)acetamide], with 0.2 to 1 µM.
For the compound `CC(=O)Nc1c[nH]c2ccc(CCOc3ccccc3)cc12` [Compound 558, N-(5-(2-phenoxyethyl)-1H-indol-3-yl)acetamide], the 50% effective concentration (EC50) is 0.2 to 1 µM.
Then `CC(=O)Nc1c[nH]c2ccc(CCC(C)(C)C3CCN(CC(F)(F)F)CC3)cc12` [Compound 275, N-(5-(3-methyl-3-(1-(2,2,2-trifluoroethyl)piperidin-4-yl)butyl)-1H-indol-3-yl)acetamide], with 1 to 5 µM.
Then `C[C@]1(C(=O)Nc2c[nH]c3ccc(OCC[C@@H]4C[C@@H]5CN(CC(F)(F)F)C[C@@H]5C4)cc23)CC[C@@H](O)CC1` [Compound 505, (1s,4S)-4-hydroxy-1-methyl-N-(5-(2-((3aR,5r,6aS)-2-(2,2,2-trifluoroethyl)octahydrocyclopenta[c]pyrrol-5-yl)ethoxy)-1H-indol-3-yl)cyclohexane-1-carboxamide], with 0.2 to 1 µM; and `CC(C)(C)C(=O)Nc1c[nH]c2ccc(CCOc3ccc(C(F)(F)F)cc3)cc12` [Compound 389, N-(5-(2-(4-(trifluoromethyl)phenoxy)ethyl)-1H-indol-3-yl)pivalamide], with 0.2 to 1 µM.
`O=C(Nc1c[nH]c2ccc(O[C@H]3C[C@@H](c4ccc(C(F)(F)F)cc4)C3)cc12)[C@H]1C[C@@H](O)C1` [Compound 337, cis-3-hydroxy-N-(5-(cis-3-(4-(trifluoromethyl)phenyl)cyclobutoxy)-1H-indol-3-yl)cyclobutane-1-carboxamide]: the EC50 was in the range of 0.2 to 1 µM.
Regarding `O=C(Nc1c[nH]c2ccc(O[C@H]3C[C@H](c4ccc(C(F)(F)F)cc4)C3)cc12)C1CC1(F)F` (stereo partly drawn) [Compound 574, 2,2-difluoro-N-(5-(trans-3-(4-(trifluoromethyl)phenyl)cyclobutoxy)-1H-indol-3-yl)cyclopropane-1-carboxamide], the concentration for a half-maximal effect (EC50) was in the range of 0.04 to 0.2 µM.
Then `N#C[C@H]1C[C@@H]1C(=O)Nc1c[nH]c2ccc(O[C@H]3C[C@@H](c4ccc(C(F)(F)F)cc4)C3)cc12` (stereo in doubt) [Compound 332, cis-2-cyano-N-(5-(cis-3-(4-(trifluoromethyl)phenyl)cyclobutoxy)-1H-indol-3-yl)cyclopropane-1-carboxamide], with 0.2 to 1 µM.
Under `O=C(Nc1c[nH]c2ccc(OCc3ccc(C(F)(F)F)cc3)cc12)C1CC(CO)C1` (stereo not drawn) [Compound 153, 3-(hydroxymethyl)-N-(5-((4-(trifluoromethyl)benzyl)oxy)-1H-indol-3-yl)cyclobutane-1-carboxamide] stands 0.2 to 1 µM; under `CO[C@H]1C[C@@](C)(C(=O)Nc2c[nH]c3ccc(OCC[C@@H]4C[C@@H]5CN(CC(F)(F)F)C[C@@H]5C4)cc23)C1` [Compound 515, (1s,3S)-3-methoxy-1-methyl-N-(5-(2-((3aR,5r,6aS)-2-(2,2,2-trifluoroethyl)octahydrocyclopenta[c]pyrrol-5-yl)ethoxy)-1H-indol-3-yl)cyclobutane-1-carboxamide], 1 to 5 µM; under `C[C@H]1C[C@H](C(=O)Nc2c[nH]c3ccc(OCC[C@@H]4C[C@@H]5CN(CC(F)(F)F)C[C@@H]5C4)cc23)C1` [Compound 341, (1r,3R)-3-methyl-N-(5-(2-((3aR,5r,6aS)-2-(2,2,2-trifluoroethyl)octahydrocyclopenta[c]pyrrol-5-yl)ethoxy)-1H-indol-3-yl)cyclobutane-1-carboxamide], 0.2 to 1 µM.
Then `CC(=O)Nc1c[nH]c2c(C)cc(CCOc3ccc(C(F)(F)F)cc3)nc12` [Compound 259, N-(7-methyl-5-(2-(4-(trifluoromethyl)phenoxy)ethyl)-1H-pyrrolo[3,2-b]pyridin-3-yl)acetamide], with 1 to 5 µM; and `O=C(Nc1c[nH]c2ccc(OCC[C@@H]3C[C@@H]4CN(CC(F)(F)F)C[C@@H]4C3)cc12)C1(C(F)(F)F)CC1` [Compound 366, N-(5-(2-((3aR,5r,6aS)-2-(2,2,2-trifluoroethyl)octahydrocyclopenta[c]pyrrol-5-yl)ethoxy)-1H-indol-3-yl)-1-(trifluoromethyl)cyclopropane-1-carboxamide], with 0.2 to 1 µM.
For `CC1(C(=O)Nc2c[nH]c3ccc(OCCc4ccc(C(F)(F)F)nc4)cc23)COC1` [Compound 372, 3-methyl-N-(5-(2-(6-(trifluoromethyl)pyridin-3-yl)ethoxy)-1H-indol-3-yl)oxetane-3-carboxamide], the EC50 fell in the range of 1 to 5 µM.
Under `O=C(Nc1c[nH]c2ccc(CCOc3ccc(C(F)(F)F)cc3)cc12)C1CC(CO)C1` (stereo not drawn) [Compound 308, 3-(hydroxymethyl)-N-(5-(2-(4-(trifluoromethyl)phenoxy)ethyl)-1H-indol-3-yl)cyclobutane-1-carboxamide] stands 0.04 to 0.2 µM; under `CO[C@H]1C[C@H](C(=O)Nc2c[nH]c3ccc(O[C@H]4C[C@@H](c5ccc(C(F)(F)F)cc5)C4)cc23)C1` [Compound 295, trans-3-methoxy-N-(5-(cis-3-(4-(trifluoromethyl)phenyl)cyclobutoxy)-1H-indol-3-yl)cyclobutane-1-carboxamide], 0.04 to 0.2 µM; under `O=C(Nc1c[nH]c2ccc(OCCc3ccc(C(F)(F)F)cc3)cc12)C1COC1` [Compound 163, N-(5-(4-(trifluoromethyl)phenethoxy)-1H-indol-3-yl)oxetane-3-carboxamide], 0.04 to 0.2 µM.
Under `CC1(F)CC(C(=O)Nc2c[nH]c3ccc(O[C@H]4C[C@@H](c5ccc(C(F)(F)F)cc5)C4)cc23)C1` (stereo partly drawn) [Compound 356, 3-fluoro-3-methyl-N-(5-(cis-3-(4-(trifluoromethyl)phenyl)cyclobutoxy)-1H-indol-3-yl)cyclobutane-1-carboxamide] stands 0.2 to 1 µM; under “3-hydroxy-N-(5-(2-((3aR,5r,6aS)-2-(2,2,2-trifluoroethyl)octahydrocyclopenta[c]pyrrol-5-yl)ethoxy)-1H-indol-3-yl)cyclobutane-1-carboxamide [Compound 347]”, 0.2 to 1 µM.
Consider `CC(C)(C)C(=O)Nc1c[nH]c2ccc(OCc3ccc(C(F)(F)F)cc3)cc12` [Compound 316, N-(5-((4-(trifluoromethyl)benzyl)oxy)-1H-indol-3-yl)pivalamide], for which the concentration giving a half-maximal response (EC50) fell in the range of 0.2 to 1 µM.
Turning to `O=C(Nc1c[nH]c2ccc(CCc3ccc(C(F)(F)F)cc3)cc12)C1CCC1` [Compound 141, N-(5-(4-(trifluoromethyl)phenethyl)-1H-indol-3-yl)cyclobutanecarboxamide], the concentration for a half-maximal effect (EC50) fell in the range of 1 to 5 µM.
Under `N#CC1CCC1C(=O)Nc1c[nH]c2ccc(OCCc3ccc(C(F)(F)F)cc3)cc12` (stereo not drawn) [Compound 187, 2-cyano-N-(5-(4-(trifluoromethyl)phenethoxy)-1H-indol-3-yl)cyclobutane-1-carboxamide] stands 0.2 to 1 µM; under `CC(=O)Nc1c[nH]c2ccc(OC(C)Cc3ccc(C(F)(F)F)cc3)cc12` (single isomer, unassigned) [Compound 285, N-(5-((1-(4-(trifluoromethyl)phenyl)propan-2-yl)oxy)-1H-indol-3-yl)acetamide], 1 to 5 µM.
